Test results taken from paper PMC7000700, “RyR1-targeted drug discovery pipeline integrating FRET-based high-throughput screening and human myofiber dynamic Ca^2+ assays” (Scientific Reports, 2020).

Assays:
[1] = system: electrically evoked Ca^2+ transients in rat skinned fibers; test: Electrically evoked Ca2+ transients (EC coupling) in rat skinned skeletal muscle fibers; format: cell-based; details: field stimulation 1 Hz, 100 nM free Ca2+
Excerpt: To test the potential impact of these compounds on excitation contraction coupling, we measured voltage-induced Ca^2+ transients in rat skeletal muscle fibers. To do this, we again used mechanically skinned fibers. Because the t-system reseals upon mechanical skinning, bathing the preparation in a K^+-based cytoplasmic solution (with a small amount of Na^+) allows the Na^+-K^+ pump to re-establish the normal membrane potential. EC coupling can be initiated by exciting the preparation with field pulses that generate action potentials in the t-system to trigger Ca^2+ release[52]–[54]. Ca^2+ release is tracked by imaging rhod-2 in the cytoplasm via confocal microscopy in line-scan mode, and quantitatively plotted in Fig. 5 (based on recordings such as shown in Supplementary Fig. 7). A major advantage of using skinned fibers is that known concentrations of RyR modulators can be added to the cytoplasm, as they were added in the “leak” experiments. With this approach, we found 1 and 10 μM myricetin reduced Ca^2+ transient peak amplitude by 12% (P = 0.0046) and 48% (P < 0.0001), respectively (Fig. 5 and Supplementary Fig. 7a). In the case of chloroxine, only addition of 100 μM led to a detectable 14% (P < 0.0001) reduction in the Ca^2+ transient peak amplitude (Fig. 5 and Supplementary Fig. 7b). Therefore, both compounds, have impact on Ca^2+ transients that is markedly lower than their effect on the t-tubule readout of RyR1 [Ca^2+] leak (Figs. 4 and 5).
All experimental methods using rats were approved by The Animal Ethics Committee at The University of Queensland. Five month old Wistar rats (UQ Biological Resources, Brisbane) were euthanized by asphyxiation via CO2 exposure, and the extensor digitorum longus (EDL) were rapidly excised.
Skinned rat fibers were prepared and bathed in a resting physiological solution containing 100 nM Ca^2+, 1 mM Mg^2+, 36 mM Na^+, 126 mM K^+, 1 mM EGTA, 90 mM HEPES, […], 10 mM creatine phosphate and 8 mM ATP (pH 7.4). The Ca^2+ sensitive dye rhod-2 was used to track cytosolic Ca^2+ transients when exposed to electrical stimulation. […]

RyR2 = RyR2 (Sus scrofa, UniProt A0A5G2R1W3); test: FLT-FRET between D-FKBP and A-CaM bound to RyR2 in cardiac SR membranes (dose-response); format: binding, porcine; parameters: RyR1 in skeletal SR membranes, and RyR2 in cardiac SR membranes; from tissue; host or cells: porcine cardiac left ventricle (crude SR vesicles); details: RyR2 samples, 30 nM Ca2+
RyR2, sequence (A0A5G2R1W3 20-4900): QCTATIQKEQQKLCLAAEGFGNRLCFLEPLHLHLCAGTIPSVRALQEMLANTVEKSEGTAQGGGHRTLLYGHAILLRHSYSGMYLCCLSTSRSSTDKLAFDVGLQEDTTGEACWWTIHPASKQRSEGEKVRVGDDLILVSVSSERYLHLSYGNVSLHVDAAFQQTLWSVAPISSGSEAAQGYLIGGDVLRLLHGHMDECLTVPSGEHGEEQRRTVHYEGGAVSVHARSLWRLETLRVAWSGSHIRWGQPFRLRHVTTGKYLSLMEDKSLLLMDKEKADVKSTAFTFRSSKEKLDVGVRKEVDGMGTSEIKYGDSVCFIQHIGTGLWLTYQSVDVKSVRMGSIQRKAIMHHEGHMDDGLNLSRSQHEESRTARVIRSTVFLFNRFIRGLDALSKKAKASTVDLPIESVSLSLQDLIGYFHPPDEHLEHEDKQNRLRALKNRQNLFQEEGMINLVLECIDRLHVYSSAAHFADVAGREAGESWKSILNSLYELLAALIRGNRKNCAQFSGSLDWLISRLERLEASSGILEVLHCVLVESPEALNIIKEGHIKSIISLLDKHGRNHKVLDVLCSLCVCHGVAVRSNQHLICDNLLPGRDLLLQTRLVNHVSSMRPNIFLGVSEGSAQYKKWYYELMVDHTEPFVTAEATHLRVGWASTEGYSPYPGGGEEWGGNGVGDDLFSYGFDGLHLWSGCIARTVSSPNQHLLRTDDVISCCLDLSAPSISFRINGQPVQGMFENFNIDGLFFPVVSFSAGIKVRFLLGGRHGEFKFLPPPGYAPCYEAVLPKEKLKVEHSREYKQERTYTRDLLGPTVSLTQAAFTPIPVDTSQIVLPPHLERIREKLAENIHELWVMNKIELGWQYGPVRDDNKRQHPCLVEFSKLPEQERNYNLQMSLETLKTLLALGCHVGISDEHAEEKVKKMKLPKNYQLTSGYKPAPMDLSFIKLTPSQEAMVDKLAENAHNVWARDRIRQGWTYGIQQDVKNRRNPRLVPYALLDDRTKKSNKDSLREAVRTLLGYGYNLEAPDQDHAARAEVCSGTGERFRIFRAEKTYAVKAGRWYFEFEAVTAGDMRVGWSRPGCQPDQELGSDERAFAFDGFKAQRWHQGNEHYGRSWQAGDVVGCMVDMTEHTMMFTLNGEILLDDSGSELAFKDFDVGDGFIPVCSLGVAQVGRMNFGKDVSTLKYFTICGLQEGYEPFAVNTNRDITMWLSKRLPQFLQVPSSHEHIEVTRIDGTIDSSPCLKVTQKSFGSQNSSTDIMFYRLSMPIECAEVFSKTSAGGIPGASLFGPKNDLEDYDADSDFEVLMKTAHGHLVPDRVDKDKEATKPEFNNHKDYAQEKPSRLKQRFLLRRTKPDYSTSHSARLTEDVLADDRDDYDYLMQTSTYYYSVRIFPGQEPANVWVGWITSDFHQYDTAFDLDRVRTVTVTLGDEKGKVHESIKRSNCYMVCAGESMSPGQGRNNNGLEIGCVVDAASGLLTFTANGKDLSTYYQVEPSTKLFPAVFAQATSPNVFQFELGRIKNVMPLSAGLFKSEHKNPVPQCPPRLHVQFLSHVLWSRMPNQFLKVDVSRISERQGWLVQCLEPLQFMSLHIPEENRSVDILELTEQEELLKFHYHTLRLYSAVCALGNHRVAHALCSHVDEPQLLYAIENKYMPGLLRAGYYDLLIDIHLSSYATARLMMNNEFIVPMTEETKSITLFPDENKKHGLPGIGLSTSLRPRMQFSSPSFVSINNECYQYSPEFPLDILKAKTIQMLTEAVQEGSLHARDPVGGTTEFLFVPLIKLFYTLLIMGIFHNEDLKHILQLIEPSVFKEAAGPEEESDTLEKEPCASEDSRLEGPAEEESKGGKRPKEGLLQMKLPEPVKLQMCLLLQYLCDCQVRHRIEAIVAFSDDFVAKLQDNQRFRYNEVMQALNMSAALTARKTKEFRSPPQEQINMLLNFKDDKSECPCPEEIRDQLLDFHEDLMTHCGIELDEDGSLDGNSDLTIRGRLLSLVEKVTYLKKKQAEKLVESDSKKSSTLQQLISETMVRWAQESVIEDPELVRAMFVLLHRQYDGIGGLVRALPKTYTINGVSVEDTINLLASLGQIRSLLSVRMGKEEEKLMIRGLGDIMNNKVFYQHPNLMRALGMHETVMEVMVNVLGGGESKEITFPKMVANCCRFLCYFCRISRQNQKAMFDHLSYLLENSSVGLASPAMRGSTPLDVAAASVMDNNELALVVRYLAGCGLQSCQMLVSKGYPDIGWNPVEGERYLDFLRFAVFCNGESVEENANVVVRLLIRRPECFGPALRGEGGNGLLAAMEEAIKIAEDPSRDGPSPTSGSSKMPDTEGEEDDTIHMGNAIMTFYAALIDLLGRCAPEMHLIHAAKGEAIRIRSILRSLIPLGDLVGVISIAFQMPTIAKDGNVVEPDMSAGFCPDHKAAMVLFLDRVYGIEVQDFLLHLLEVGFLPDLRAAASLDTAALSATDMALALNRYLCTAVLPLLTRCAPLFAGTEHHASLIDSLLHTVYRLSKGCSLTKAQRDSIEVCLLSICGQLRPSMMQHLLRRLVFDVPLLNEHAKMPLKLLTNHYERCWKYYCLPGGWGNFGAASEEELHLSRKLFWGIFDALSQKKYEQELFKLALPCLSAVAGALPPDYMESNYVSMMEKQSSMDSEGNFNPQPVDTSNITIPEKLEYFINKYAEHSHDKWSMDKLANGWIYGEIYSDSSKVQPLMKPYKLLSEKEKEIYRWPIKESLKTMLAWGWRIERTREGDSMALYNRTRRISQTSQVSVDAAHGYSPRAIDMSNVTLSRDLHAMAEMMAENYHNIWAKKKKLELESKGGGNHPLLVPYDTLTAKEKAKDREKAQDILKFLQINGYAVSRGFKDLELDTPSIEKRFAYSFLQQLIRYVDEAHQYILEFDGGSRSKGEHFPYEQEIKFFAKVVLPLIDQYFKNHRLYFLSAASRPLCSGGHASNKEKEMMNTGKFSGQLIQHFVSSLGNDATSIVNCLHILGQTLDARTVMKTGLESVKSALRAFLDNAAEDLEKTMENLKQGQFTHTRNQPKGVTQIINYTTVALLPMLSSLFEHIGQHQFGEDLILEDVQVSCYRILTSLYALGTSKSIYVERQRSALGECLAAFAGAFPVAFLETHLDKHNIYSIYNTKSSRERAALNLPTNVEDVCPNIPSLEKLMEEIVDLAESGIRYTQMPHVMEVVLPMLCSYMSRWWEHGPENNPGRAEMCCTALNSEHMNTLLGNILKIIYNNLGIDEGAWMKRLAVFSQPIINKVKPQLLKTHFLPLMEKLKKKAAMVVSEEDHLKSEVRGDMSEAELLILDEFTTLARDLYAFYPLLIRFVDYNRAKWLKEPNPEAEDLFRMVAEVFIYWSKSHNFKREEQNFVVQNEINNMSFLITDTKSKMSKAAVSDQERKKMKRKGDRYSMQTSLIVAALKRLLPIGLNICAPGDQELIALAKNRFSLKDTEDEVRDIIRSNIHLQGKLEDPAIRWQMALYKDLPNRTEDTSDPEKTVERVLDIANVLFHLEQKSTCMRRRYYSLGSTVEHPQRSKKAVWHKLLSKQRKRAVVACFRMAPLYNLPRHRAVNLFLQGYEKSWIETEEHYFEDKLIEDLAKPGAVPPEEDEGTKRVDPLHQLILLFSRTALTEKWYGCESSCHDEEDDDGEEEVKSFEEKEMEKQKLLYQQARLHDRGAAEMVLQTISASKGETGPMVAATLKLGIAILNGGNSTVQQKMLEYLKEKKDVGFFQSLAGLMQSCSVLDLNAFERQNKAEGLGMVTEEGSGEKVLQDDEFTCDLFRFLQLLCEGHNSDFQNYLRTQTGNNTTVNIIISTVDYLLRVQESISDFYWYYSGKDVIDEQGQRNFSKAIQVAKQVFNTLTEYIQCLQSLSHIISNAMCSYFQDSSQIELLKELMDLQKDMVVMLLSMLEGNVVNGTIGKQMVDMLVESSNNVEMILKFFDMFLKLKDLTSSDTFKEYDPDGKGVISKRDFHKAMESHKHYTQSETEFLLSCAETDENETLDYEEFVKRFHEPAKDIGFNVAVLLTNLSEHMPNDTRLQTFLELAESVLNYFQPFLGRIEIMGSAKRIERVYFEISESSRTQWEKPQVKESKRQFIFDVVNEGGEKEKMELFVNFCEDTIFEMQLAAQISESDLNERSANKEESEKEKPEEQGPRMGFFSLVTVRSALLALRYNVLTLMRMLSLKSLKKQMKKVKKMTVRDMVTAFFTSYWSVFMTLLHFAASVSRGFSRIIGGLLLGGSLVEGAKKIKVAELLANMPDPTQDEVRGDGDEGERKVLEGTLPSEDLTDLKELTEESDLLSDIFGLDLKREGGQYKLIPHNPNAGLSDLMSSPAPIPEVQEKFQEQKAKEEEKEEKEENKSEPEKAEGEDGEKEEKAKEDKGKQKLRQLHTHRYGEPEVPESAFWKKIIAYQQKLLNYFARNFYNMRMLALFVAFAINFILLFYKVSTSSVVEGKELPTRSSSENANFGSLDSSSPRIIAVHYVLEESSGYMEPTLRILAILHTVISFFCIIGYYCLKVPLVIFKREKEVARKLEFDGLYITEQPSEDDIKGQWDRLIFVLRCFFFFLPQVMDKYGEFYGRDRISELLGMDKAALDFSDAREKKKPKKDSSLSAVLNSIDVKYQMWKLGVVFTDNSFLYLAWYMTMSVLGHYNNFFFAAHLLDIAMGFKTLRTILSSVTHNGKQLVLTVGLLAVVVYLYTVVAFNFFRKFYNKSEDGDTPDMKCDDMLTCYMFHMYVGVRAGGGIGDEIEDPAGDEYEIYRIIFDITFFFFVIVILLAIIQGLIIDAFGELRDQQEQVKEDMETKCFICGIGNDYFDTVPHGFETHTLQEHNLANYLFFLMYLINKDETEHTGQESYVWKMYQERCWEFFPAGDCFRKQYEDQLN
Protocol: Necessary counter-screens to our pathological RyR1 conditions include evaluating compound effects in healthy conditions and on the cardiac isoform, RyR2. Using the same FRET assay as in HTS, we tested the dose response of key Hits from this screen and the previously HTS-identified RyR1 inhibitor, chloroxine, on healthy (5 mM GSH) and pathological (5 mM GSSG) conditions for both RyR1 in skeletal SR membranes, and RyR2 in cardiac SR membranes.
Skeletal HSR and cardiac CSR (0.4 mg/ml) membranes were independently pre-incubated with 60 nM D-FKBP, for 90 min, at 37 °C, in a solution containing 150 mM KCl, 5 mM GSH, 0.1 mg/mL BSA, 1 µg/mL Aprotinin/Leupeptin, 1 mM DTT and 20 mM PIPES (pH 7.0). To remove unbound D-FKBP, the SR membranes were spun down at 110,000 × g for 20 min, and then resuspended to 1 mg/mL (skeletal HSR) and 2 mg/mL (cardiac CSR) in binding buffer consisting of 150 mM KCl, 5 mM GSSG, 0.1 mg/mL BSA, 1μg/mL Aprotinin/Leupeptin and 20 mM PIPES, pH 7.0. These samples were then incubated with indicated [A-CaM] for 30 min at 22 °C in binding buffer containing 0.065 mM CaCl2 to give 30 nM free Ca^2+ in the presence of 1 mM EGTA (calculated by MaxChelator). This labeled SR sample was applied to the assay plates in 5 μL aliquots using a Multidrop™ Combi reagent dispenser (Thermo Scientific) with a standard-tube. An additional set of the assay plates were loaded with skeletal HSR or cardiac CSR labeled with only D-FKBP (no added A-CaM).
FLT measurements were conducted in a top-read FLT-PR designed and built by Fluorescence Innovations, Inc[33]. AF488 donor fluorescence was excited with a 473-nm microchip laser from Concepts Research Corporation (Belgium, WI), and emission was acquired with 490-nm long-pass and 517/20-nm band-pass filters (Semrock, Rochester, NY).
FLT waveforms for each well were fit based on a one-exponential decay function using least-squares minimization global-analysis software (Fluorescence Innovations, Inc.), as previously described[19],[33]. FRET efficiency (E) was determined as the fractional decrease of donor FLT (τD), due to the presence of acceptor fluorophore (τDA), using the following equation:1 E=1−τDA/τD,

RyR1 = RyR1 (Sus scrofa, UniProt P16960); test: F-FKBP binding to RyR1 by co-sedimentation with skeletal SR membranes; parameters: using co-sedimentation with pig skeletal and cardiac SR membranes; from tissue; host or cells: pig skeletal muscle (heavy SR membranes); species or system pig; details: RyR1, 10 μM Hit, 30 nM Ca2+, 5 mM GSSG or GSH
Protocol: The Hit-induced effect on FRET between D-FKBP and A-CaM most likely results from one or the combination of factors, including a shift in CaM and/or FKBP12.6 binding, and/or structure of the RyR complex that shifts the D-A distance. Under the same assay conditions as in the primary screen, we assessed the effect of 10 μM Hit on fluorescent FKBP12.6 (F-FKBP) binding to RyRs, using co-sedimentation with pig skeletal and cardiac SR membranes.
Supplementary Fig. 3 Effect of HTS Hits on F-FKBP binding to a) RyR1 in skeletal HSR membranes, and b) RyR2
in cardiac CSR membranes at 30 nM Ca2+ in the presence of 5 mM GSSG or GSH. Results are represented as individual
data points and means ± SEM, n = 4-5. *P < 0.05 by 2-sided Student’s unpaired t-test. […]

| SMILES | Reduction of Ca2+ transient peak amplitude ([1]; 100 μM compound) | Effect on FRET (RyR2) | Reduction of Ca2+ transient peak amplitude ([1]; 1 μM compound) | Reduction of Ca2+ transient peak amplitude ([1]; 10 μM compound) | Decrease of F-FKBP binding (RyR1) |
| --- | --- | --- | --- | --- | --- |
| Oc1c(Cl)cc(Cl)c2cccnc12 [chloroxine] | 14% | did not alter FRET |  |  |  |
| O=c1c(O)c(-c2cc(O)c(O)c(O)c2)oc2cc(O)cc(O)c12 [myricetin] |  |  | 12% | 48% | did not alter |
